Laboratory results taken from US20080221116A1, “ISOXAZOLINE ALPHA 1a/1d ADRENORECEPTOR ANTAGONISTS” (priority 2006, published 2008).
pKi: −log10 of the molar value. Values joined by “and” are separate entries in the source; they are usually repeats but may differ in a detail not shown here. Equal values may be shown once. Read-outs that look alike come from different tables or passages of the source.

Key:
[1] = as described in the article; cited from earlier work
D2 = D2 (Homo sapiens, UniProt P14416); conditions: as described in the article; cited from earlier work
Chain of D2 (P14416 whole entry): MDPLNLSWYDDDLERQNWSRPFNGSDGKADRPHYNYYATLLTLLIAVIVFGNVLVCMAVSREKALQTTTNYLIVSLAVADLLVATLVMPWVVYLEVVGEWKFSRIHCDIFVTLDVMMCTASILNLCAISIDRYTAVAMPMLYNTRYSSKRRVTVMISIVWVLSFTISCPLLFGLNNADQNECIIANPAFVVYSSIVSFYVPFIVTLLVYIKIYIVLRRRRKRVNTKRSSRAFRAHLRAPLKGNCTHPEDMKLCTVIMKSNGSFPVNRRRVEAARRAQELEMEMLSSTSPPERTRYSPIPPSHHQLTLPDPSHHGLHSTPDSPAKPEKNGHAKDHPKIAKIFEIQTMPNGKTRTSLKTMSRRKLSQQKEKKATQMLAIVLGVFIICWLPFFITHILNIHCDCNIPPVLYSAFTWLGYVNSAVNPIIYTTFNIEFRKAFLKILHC

5-HT1A site = biological target: T1, 5-HT1A site (Homo sapiens, UniProt P08908); conditions: as described in the article; cited from earlier work
T1 sequence (P08908 1-422): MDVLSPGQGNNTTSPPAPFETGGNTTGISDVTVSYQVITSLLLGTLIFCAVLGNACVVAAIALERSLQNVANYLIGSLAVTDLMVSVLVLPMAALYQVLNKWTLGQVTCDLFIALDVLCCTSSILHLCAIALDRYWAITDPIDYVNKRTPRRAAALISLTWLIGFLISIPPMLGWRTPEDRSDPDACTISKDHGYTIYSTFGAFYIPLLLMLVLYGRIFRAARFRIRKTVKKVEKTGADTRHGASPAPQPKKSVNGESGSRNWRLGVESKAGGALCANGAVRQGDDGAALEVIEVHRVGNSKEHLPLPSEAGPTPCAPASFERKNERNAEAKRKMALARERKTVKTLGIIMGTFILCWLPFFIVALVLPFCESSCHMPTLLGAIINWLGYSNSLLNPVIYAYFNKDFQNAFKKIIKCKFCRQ

α1a-AR = biological target: T2, α1a-AR (Homo sapiens, UniProt P35348); assay: α1-Adrenergic Receptor Binding Assay, 125I-HEAT radio-ligand binding, transfected COS-7 cell membranes, α1a subtype; conditions: COS-7 membranes
T2 construct: expressed in transfected cells; host or cells: COS-7 cells (African Green monkey kidney), membranes
T2 sequence (P35348 1-466): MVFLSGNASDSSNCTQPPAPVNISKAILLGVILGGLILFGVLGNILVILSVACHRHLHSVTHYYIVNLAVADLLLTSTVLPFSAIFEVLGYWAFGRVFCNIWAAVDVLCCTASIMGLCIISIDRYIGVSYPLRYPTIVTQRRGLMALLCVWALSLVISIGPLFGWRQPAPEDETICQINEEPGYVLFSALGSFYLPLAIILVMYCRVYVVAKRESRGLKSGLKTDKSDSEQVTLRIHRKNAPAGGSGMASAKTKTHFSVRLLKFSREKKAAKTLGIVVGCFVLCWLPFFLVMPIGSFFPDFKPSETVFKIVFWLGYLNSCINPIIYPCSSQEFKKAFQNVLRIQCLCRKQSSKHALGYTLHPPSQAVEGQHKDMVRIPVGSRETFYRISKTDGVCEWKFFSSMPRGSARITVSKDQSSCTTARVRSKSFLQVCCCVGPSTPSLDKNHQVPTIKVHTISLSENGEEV
Method in brief: (§1)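 Competition binding of ¹²⁵I-HEAT ([…]) on membranes from COS-7 cells transfected with each human α1-AR subtype; membrane 0.5 ng/μL (α1a, α1b) or 13 ng/μL (α1d). Compound […] in half-log steps, triplicates, 1 hr at rt. Filtration and scintillation counting; Ki (nM) derived.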

α1b-AR = biological target: T3, α1b-AR (Homo sapiens, UniProt P35368); assay: α1-Adrenergic Receptor Binding Assay, 125I-HEAT radio-ligand binding, transfected COS-7 cell membranes, α1b subtype; conditions: COS-7 membranes
T3 construct: expressed in transfected cells; host or cells: COS-7 cells (African Green monkey kidney), membranes
T3 sequence (P35368 1-520): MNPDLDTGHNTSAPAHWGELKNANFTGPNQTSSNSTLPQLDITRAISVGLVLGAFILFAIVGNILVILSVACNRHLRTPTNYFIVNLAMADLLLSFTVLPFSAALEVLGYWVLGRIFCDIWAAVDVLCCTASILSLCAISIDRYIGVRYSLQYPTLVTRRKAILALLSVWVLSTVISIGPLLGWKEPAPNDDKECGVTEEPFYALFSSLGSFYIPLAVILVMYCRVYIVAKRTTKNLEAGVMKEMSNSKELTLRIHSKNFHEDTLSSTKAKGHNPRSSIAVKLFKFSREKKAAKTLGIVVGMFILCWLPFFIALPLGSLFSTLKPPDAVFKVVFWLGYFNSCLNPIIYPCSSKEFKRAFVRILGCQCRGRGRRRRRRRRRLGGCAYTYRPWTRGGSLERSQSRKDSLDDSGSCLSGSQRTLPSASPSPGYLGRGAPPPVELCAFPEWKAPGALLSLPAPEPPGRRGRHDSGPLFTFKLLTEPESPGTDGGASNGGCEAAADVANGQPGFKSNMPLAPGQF
Method in brief: as §1

α1d-AR = biological target: T4, α1d-AR (Homo sapiens, UniProt P25100); assay: α1-Adrenergic Receptor Binding Assay, 125I-HEAT radio-ligand binding, transfected COS-7 cell membranes, α1d subtype; conditions: COS-7 membranes
T4 construct: expressed in transfected cells; host or cells: COS-7 cells (African Green monkey kidney), membranes
T4 sequence (P25100 1-572): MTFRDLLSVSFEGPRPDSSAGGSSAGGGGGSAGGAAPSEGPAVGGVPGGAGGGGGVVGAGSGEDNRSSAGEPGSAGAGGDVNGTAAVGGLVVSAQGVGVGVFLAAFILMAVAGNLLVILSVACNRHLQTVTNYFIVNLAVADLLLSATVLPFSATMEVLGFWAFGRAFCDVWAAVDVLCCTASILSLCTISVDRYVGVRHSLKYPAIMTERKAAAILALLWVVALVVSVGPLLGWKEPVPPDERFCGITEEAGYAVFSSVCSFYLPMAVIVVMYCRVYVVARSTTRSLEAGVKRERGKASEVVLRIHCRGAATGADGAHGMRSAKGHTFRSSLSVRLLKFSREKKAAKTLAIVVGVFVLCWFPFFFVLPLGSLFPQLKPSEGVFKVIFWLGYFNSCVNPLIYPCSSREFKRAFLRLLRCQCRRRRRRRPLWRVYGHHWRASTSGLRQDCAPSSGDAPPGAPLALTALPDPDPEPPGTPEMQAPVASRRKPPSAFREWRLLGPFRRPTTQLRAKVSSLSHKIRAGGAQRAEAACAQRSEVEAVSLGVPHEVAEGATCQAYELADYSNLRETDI
Method in brief: as §1

[2] = average value, read-out: Alpha 1 Ki α1a (1) Average Value
[3] = individual values, read-out: Alpha 1 Ki α1a (2) Individual Values
[4] = average value, read-out: Alpha 1 Ki α1b (1) Average Value
[5] = individual values, read-out: Alpha 1 Ki α1b (2) Individual Values
[6] = average value, read-out: Alpha 1 Ki α1d (1) Average Value
[7] = individual values, read-out: Alpha 1 Ki α1d (2) Individual Values

CC(C)Oc1ccccc1N1CCN(CC2CC(CO)=NO2)CC1 (stereo not shown) [compound 49, 4,5-dihydro-5-[[4-[2-(1-methylethoxy)phenyl]-1-piperazinyl]methyl]-3-isoxazolemethanol]
Conditioned Avoidance Response (CAR) activity [1]: strong
D2 binding (D2): lack
binding affinity for the 5-HT1A site (5-HT1A site): lack

CC(C)Oc1ccccc1N1CCN(CC2CC(C(=O)N3CCC(S(=O)(=O)c4ccccc4)CC3)=NO2)CC1 (stereo not shown) [Compound 30, (4-benzenesulfonyl-piperidin-1-yl)-{5-[4-(2-isopropoxy-phenyl)-piperazin-1-ylmethyl]-4,5-dihydro-isoxazol-3-yl}-methanone]
pKi (α1a-AR; [2]): 8.47
pKi (α1a-AR; [3]): 8.47
pKi (α1b-AR; [4]): 6.76
pKi (α1b-AR; [5]): 6.79 and 6.74
pKi (α1d-AR; [6]): 8.35
pKi (α1d-AR; [7]): 8.24 and 8.49
melting point: 74 to 76 °C

CC(C)Oc1ccccc1N1CCN(CC2CC(CN3CCCCC3=O)=NO2)CC1.O.[O-][Cl+3]([O-])([O-])O (stereo not shown) [compound 50, 1-[[4,5-dihydro-5-[[4-[2-(1-methylethoxy)phenyl]-1-piperazinyl]methyl]-3-isoxazolyl]methyl]-piperidin-2-one perchlorate hydrate]
Conditioned Avoidance Response (CAR) activity [1]: not so active
binding affinity for the 5-HT1A site (5-HT1A site): moderately high

CC(C)Oc1ccccc1N1CCN(CC2CC(C(=O)N3CCc4ccc([N+](=O)[O-])cc43)=NO2)CC1 (stereo not shown) [Compound 11, {5-[4-(2-isopropoxy-phenyl)-piperazin-1-ylmethyl]-4,5-dihydro-isoxazol-3-yl}-(6-nitro-2,3-dihydro-indol-1-yl)-methanone]
pKi (α1a-AR; [2]): 8.85
pKi (α1a-AR; [3]): 8.66 and 9.20
pKi (α1b-AR; [4]): 6.84
pKi (α1b-AR; [5]): 6.82 and 6.87
pKi (α1d-AR; [6]): 8.74
pKi (α1d-AR; [7]): 8.51 and 9.26

CC(C)Oc1ccccc1N1CCN(CC2CC(C(=O)N3CCC(Cc4ccccc4)CC3)=NO2)CC1 (stereo not shown) [Compound 27, (4-benzyl-piperidin-1-yl)-{5-[4-(2-isopropoxy-phenyl)-piperazin-1-ylmethyl]-4,5-dihydro-isoxazol-3-yl}-methanone]
pKi (α1a-AR; [2]): 7.94
pKi (α1a-AR; [3]): 7.94
pKi (α1b-AR; [4]): 6.66
pKi (α1b-AR; [5]): 6.66
pKi (α1d-AR; [6]): 8.19
pKi (α1d-AR; [7]): 8.19

CC(C)Oc1ccccc1N1CCN(CC2CC(C(=O)N3CCC(Oc4ccccc4)CC3)=NO2)CC1 (single isomer, unassigned) [Compound 38, {(5R*)-5-[4-(2-isopropoxy-phenyl)-piperazin-1-ylmethyl]-4,5-dihydro-isoxazol-3-yl}-(4-phenoxy-piperidin-1-yl)-methanone]
pKi (α1a-AR; [2]): 6.88
pKi (α1a-AR; [3]): 6.88
pKi (α1b-AR; [4]): 6.19
pKi (α1b-AR; [5]): 6.19
pKi (α1d-AR; [6]): 7.26
pKi (α1d-AR; [7]): 7.26

CC(C)Oc1ccccc1N1CCN(CC2CC(C(=O)N3CCc4cc(F)ccc43)=NO2)CC1 (stereo not shown) [Compound 20, (5-fluoro-2,3-dihydro-indol-1-yl)-{5-[4-(2-isopropoxy-phenyl)-piperazin-1-ylmethyl]-4,5-dihydro-isoxazol-3-yl}-methanone]
pKi (α1a-AR; [2]): 8.65
pKi (α1a-AR; [3]): 8.87 and 8.51
pKi (α1b-AR; [4]): 6.95
pKi (α1b-AR; [5]): 7.01 and 6.90
pKi (α1d-AR; [6]): 9.21
pKi (α1d-AR; [7]): 9.84 and 8.96

CC(C)Oc1ccccc1N1CCN(CC2CC(C(=O)N3CCC(c4ccccc4)(c4ccccc4)CC3)=NO2)CC1 (stereo not shown) [Compound 31, (4,4-diphenyl-piperidin-1-yl)-{5-[4-(2-isopropoxy-phenyl)-piperazin-1-ylmethyl]-4,5-dihydro-isoxazol-3-yl}-methanone]
pKi (α1a-AR; [2]): 7.60
pKi (α1a-AR; [3]): 7.60
pKi (α1b-AR; [4]): 6.61
pKi (α1b-AR; [5]): 6.61
pKi (α1d-AR; [6]): 8.02
pKi (α1d-AR; [7]): 8.02
melting point: 61 to 63 °C
